# Results taken from patent US20110040170A1, “ENDOSCOPIC IMAGING PHOTODYNAMIC THERAPY SYSTEM AND METHODS OF USE” (YEDA RESEARCH AND DEVELOPMENT CO., LTD., priority 2008, published 2011).
# Where “and” joins values, the source holds several entries; their conditions need not be identical. Equal values may be shown once. Entries after “also recorded” stand apart in the source; their conditions may differ.
# Experiments:
# feto-placental unit [1] = assay: In vivo placental PDT of a single feto-placental unit in the pregnant rat
# Procedure: Materials and Methods (i) Animals. Pregnant 10-week old female Wistar rats (litter sizes of 10±2) (Harlan Laboratories, Rehovot, Israel) were delivered to the lab on embryonic day 7-12 (E7-E12) and allowed acclimatization of at least 48 h. All animal protocols were approved by the Weizmann Institutional Animal Care and Use Committee (IACUC).
# (ii) Photosensitizer. Palladium 3^1-oxo-15 -methoxycarbonylmethylrhodobacterio-chlorin-13^1,17^3-di(2-N2-dimethylaminoethyl) amide (PMRDA), a water-soluble positively charged Pd-bacteriochlorophyll derivative disclosed in WO 2005/120573, was either synthesized in the inventor's laboratory by known methods or kindly provided by Steba Laboratories Ltd. (Israel), and used as a photosensitizer. The PMRDA was obtained as powder and kept under Argon (Ar) at −20° C. in the dark. Thereafter it was dissolved in methanol (MeOH) and, following spectrophotometric determination of concentration, was divided into aliquots, dried under Ar and kept at −20° C. in the dark until use.
# (iii) Light source. A 1W 755 nm laser (CeramOptec, Bonn, Germany) was used. Light was delivered via a diffuser tipped optic fiber (Medlight S.A., Ecublens, Switzerland).
# (iv) In vivo PDT protocol. A pregnant rat (E14) was anesthetized by isoflurane inhalation using the IMPAC6 system (VetEquip Inc., Pleasanton, Calif., USA) and placed on its back; the lower abdomen was shaved, washed with 70% ethanol and draped with sterile gauze. A midline incision (approximately 2 cm in length) in the lower abdomen was performed by cutting the skin and abdominal-muscle layers separately. Using round forceps, the uterus was gently drawn out from the abdominal cavity and placed on the gauze. The exposed uterus was continuously irrigated with sterile 0.9% NaCl solution during the procedure (for layout, see FIGS. 5A, 5B). One embryo was randomly selected for treatment and positioned with the placenta facing up. […] Anesthesia was discontinued and the rat was placed in a cage and closely monitored for at least 48 h. […]
# feto-placental unit [2] = assay: Histological analysis of feto-placental units and adjacent uterus after in utero PDT; assay type: in vivo, Wistar rats; settings: E16
# Procedure: (iv) In vivo PDT protocol. A pregnant rat (E14) was anesthetized by isoflurane inhalation using the IMPAC6 system (VetEquip Inc., Pleasanton, Calif., USA) and placed on its back; the lower abdomen was shaved, washed with 70% ethanol and draped with sterile gauze. A midline incision (approximately 2 cm in length) in the lower abdomen was performed by cutting the skin and abdominal-muscle layers separately. Using round forceps, the uterus was gently drawn out from the abdominal cavity and placed on the gauze. The exposed uterus was continuously irrigated with sterile 0.9% NaCl solution during the procedure (for layout, see FIGS. 5A, 5B). One embryo was randomly selected for treatment and positioned with the placenta facing up. The laser beam was then directed to the exposed placental pole and the beam positioned for subsequent therapeutic illumination (6 mm light spot diameter) using the built-in visible (630 nm, 3 mW) aiming beam. No shielding of neighboring embryos was required. The photosensitizer PMRDA (50 μg/30 μl sterile saline) was delivered by trans-uterine injection (30G, 0.3 ml, insulin syringe) into the placenta. Following a drug/light time interval (DLTI) of 120 sec, illumination (100 mW/cm^2) was delivered (300 sec) to the placenta in a trans-uterine manner from above, perpendicular to the uterus (FIG. 5A). Upon completion of the PDT protocol, the uterus was eased back into the abdominal cavity. The abdominal facia was sutured using sterile 4-0 braided silk thread and the skin was clipped using 9 mm surgical clips. Anesthesia was discontinued and the rat was placed in a cage and closely monitored for at least 48 h. Animals received analgesia (Oxycod®, 6 ml/l) in their drinking water for at least 48 h. Controls: Dark control (DC): placental administration of photosensitizer without illumination. Light control (LC): placental sham injection of sterile vehicle (saline), followed by illumination with the respective light dose. Untreated control (UN): all untreated fetoplacental units in a treated rat.
# (viii) Histology. […]
# uterus = assay: Histological analysis of post-PDT uteri for long-term damage; assay type: in vivo, Wistar rats
# Procedure: (viii) Histology. Following animal sacrifice, the abdomen was surgically opened, the uterus was tied-off at the cervix, removed and placed in Carnoy's fixative (6:3:1 ethanol, chloroform and acetic acid, by vol.), or Tris-buffered Zn fixative (2.8 mM calcium acetate, 22.8 mM zinc acetate, and 36.7 mM zinc chloride in 0.1M Tris buffer, pH 7.4) for 48-72 h. Fixed tissue samples were placed in 70% ethanol, paraffin embedded and slides were prepared. Slides were stained with hematoxylin and eosin (H&E) Immunohistochemical staining of the specific cell markers was done using the following antibodies: sheep anti-von Willebrand Factor (vWF)] (Serotec, Oxford, UK), mouse anti-pancytokeratin (clone AE1/AE3, Zymed, San-Francisco, USA) and mouse anti-human smooth muscle actin (SMA) (a SMC marker) (clone 1A4, Serotec, Oxford, UK).
# Following verification of the functional integrity of post-PDT rat uteri, histological analysis was conducted in order to identify possible long-term damage resulting from the treatment. For this purpose, uteri in post-PDT and control manipulated rats were examined approximately 10 days after parturition (17-18 days after treatment). The respective uteri were stained by standard H&E (FIGS. 8B and 8F) as well as by anti-SMA antibody (a SMC marker, indicative of uterine wall integrity) (FIGS. 8C and 8G), anti-pan-cytokeratin antibody (an epithelial cell marker, indicative of endometrial integrity and absence of adhesions) (FIGS. 8D and 8H) and for vWF factor (an endothelial cell marker, illustrating blood vessel integrity) (FIGS. 8E and 8I). Uteri featured mild to moderate organizing hemorrhages in the endometrium and mesometrium, typical of post-gravid uteri (uteri after parturition). The only type of lesion found was the presence of a low number of hemosiderin-laden macrophages (siderophages) in the endometrium (where such a presence is normal) and in the mesometrium. This finding (siderophages) was highest in the DC uterus and milder in the post PDT uterus.
# [3] = rat
# Description: (vi) Post PDT fertility assessment. Treated rats were allowed to reach parturition and pup weaning (P21). Fertile males were then introduced into the cages and rats were allowed to mate until pregnancy could be verified by daily vaginal smears and palpation. Pregnancy in both uterine horns was verified by magnetic resonance imaging (MRI) and/or by animal sacrifice and macroscopic examination.
# uterine horn = settings: cited from earlier work
# extrauterine pregnancy = settings: selected patients (mass less than 4 cm, no fetal heart beat, low β-hCG); cited from earlier work
# [4] = subsequent fertility after 5-ALA PDT
compound,measurement,setting,value
"Palladium 3^1-oxo-15 -methoxycarbonylmethylrhodobacterio-chlorin-13^1,17^3-di(2-N2-dimethylaminoethyl) amide [PMRDA]",pregnancy termination (embryo death rate) following PMRDA-PDT,"feto-placental unit [1]; 50 μg/30 μl intra-placental injection at E14, DLTI 120 sec, 755 nm 100 mW/cm^2 for 300 sec, assessed E16, 11/14 embryos",~80% and 78.6%
same,"embryo mortality rate, dark control (DC)","feto-placental unit [1]; placental administration of photosensitizer without illumination, E14, assessed E16, 3/8 embryos",37.5%
same,morbidity to the treated pregnant rat,"feto-placental unit [1]; rat, in vivo",did not result in noticeable morbidity
same,"placental necrosis, share of placental mass involved",feto-placental unit [2]; post-PMRDA-PDT placenta,approximately 70%
same,histological state of the embryo,feto-placental unit [2]; post-PMRDA-PDT,fully necrotic embryo
same,state of the uterus adjacent to the treated placenta,feto-placental unit [2]; post-PMRDA-PDT,appeared viable
same,"siderophages in endometrium and mesometrium, post PDT uterus",uterus; PMRDA with illumination,milder
same,"siderophages in endometrium and mesometrium, DC uterus",uterus; PMRDA without illumination,highest
same,necrosis / pathological findings in post-PDT uteri,"uterus; uteri after parturition, H&E, SMA, pan-cytokeratin, vWF staining",No necrotic areas were found; also recorded: no pathological findings
same,fertility following local in vivo placental PDT,[3],fertility of the rats is preserved
same,"ability to conceive after PDT, parturition and re-mating",[3]; in vivo,all six rats pregnant
same,litter sizes of second pregnancy,[3]; in vivo,6-11
same,parturition of the remaining litter after treatment,[3]; in vivo,All six rats achieved normal parturition
same,pups delivered at parturition after treatment,[3]; in vivo,6 to 11 pups
"NCC(=O)CCC(=O)O [5-ALA, 5-aminolevulinic acid]",treated animals that did not conceive following PDT,"uterine horn; 5-ALA administered E10, examined E17",one third
same,fewer implanted embryos in the treated horn,uterine horn; [4],~28%
same,treated animals that developed pregnancies in the treated horn subsequently,uterine horn; [4],66.2%
same,pregnancy outcome in the treated uterine horn,"uterine horn; systemic 5-ALA, whole horn illuminated",loss of all embryos in the treated uterine horn; also recorded: termination of all pregnancies in the treated horn
"CN(Cc1cnc2nc(N)nc(N)c2n1)c1ccc(C(=O)N[C@@H](CCC(=O)O)C(=O)O)cc1 [methotrexate, Methotrexate]",success rate of medical therapy of EUP,extrauterine pregnancy,70-95%
